Assay results reported in patent publication US11447466B2, “Substituted indole compounds useful as inhibitors of TLR7/8/9” (BRISTOL-MYERS SQUIBB COMPANY, priority 2017, dated 2022).

Columns and labels:
Format in all cases: cell-based
[1] = molecular target: T1, human TLR8 (Homo sapiens, UniProt Q9NR97); experiment: TLR8 inhibition reporter assay (HEK-Blue SEAP reporter, R848 stimulation); details: HEK-Blue cells overexpressing human TLR8, SEAP reporter, R848 15.9 μM, 22 hour incubation
T1 construct: host or cells: HEK-Blue cells
T1 sequence (Q9NR97 27-1041): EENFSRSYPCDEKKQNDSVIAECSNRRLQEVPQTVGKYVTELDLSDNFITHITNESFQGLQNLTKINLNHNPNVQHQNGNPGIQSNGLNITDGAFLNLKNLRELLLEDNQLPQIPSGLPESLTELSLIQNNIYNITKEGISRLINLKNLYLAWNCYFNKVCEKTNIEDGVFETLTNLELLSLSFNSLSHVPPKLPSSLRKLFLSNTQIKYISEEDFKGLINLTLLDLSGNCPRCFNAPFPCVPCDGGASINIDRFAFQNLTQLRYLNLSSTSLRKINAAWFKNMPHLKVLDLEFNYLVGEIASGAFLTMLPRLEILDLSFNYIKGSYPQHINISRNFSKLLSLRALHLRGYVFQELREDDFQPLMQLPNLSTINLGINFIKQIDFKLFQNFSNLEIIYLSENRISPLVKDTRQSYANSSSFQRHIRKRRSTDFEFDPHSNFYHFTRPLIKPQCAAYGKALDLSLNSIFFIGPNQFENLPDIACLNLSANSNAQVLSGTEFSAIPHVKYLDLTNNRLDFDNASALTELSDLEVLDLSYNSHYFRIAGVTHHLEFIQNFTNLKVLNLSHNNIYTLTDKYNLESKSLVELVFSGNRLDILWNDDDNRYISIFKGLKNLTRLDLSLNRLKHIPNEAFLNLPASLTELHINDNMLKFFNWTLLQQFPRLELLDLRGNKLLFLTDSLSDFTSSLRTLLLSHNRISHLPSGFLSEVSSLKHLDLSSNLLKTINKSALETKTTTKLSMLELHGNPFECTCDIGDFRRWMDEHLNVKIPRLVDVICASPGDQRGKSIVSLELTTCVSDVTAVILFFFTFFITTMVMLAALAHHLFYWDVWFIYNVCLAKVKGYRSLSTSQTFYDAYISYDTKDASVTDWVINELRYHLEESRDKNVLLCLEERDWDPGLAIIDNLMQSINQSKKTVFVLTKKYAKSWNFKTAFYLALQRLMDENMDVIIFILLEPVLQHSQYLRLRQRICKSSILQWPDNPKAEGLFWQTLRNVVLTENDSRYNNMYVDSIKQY
How it was run: (§1)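 Agonists used: gardiquimod 7.5 μM (TLR7), R848 15.9 μM (TLR8), ODN2006 5 nM (TLR9), added after 30 min room-temperature compound pre-treatment (0.05 nM–50 μM) of receptor-overexpressing HEK-Blue cells. SEAP reporter (NF-κB/AP-1 driven) read after 22 h at 37 °C; inhibition scaled between agonist+DMSO and reference-inhibitor wells.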

[2] = molecular target: T2, human TLR9 (Homo sapiens, UniProt Q9NR96); experiment: TLR9 inhibition reporter assay (HEK-Blue SEAP reporter, ODN2006 stimulation); details: HEK-Blue cells overexpressing human TLR9, SEAP reporter, ODN2006 5 nM, 22 hour incubation
T2 construct: host or cells: HEK-Blue cells
T2 sequence (Q9NR96 26-1032): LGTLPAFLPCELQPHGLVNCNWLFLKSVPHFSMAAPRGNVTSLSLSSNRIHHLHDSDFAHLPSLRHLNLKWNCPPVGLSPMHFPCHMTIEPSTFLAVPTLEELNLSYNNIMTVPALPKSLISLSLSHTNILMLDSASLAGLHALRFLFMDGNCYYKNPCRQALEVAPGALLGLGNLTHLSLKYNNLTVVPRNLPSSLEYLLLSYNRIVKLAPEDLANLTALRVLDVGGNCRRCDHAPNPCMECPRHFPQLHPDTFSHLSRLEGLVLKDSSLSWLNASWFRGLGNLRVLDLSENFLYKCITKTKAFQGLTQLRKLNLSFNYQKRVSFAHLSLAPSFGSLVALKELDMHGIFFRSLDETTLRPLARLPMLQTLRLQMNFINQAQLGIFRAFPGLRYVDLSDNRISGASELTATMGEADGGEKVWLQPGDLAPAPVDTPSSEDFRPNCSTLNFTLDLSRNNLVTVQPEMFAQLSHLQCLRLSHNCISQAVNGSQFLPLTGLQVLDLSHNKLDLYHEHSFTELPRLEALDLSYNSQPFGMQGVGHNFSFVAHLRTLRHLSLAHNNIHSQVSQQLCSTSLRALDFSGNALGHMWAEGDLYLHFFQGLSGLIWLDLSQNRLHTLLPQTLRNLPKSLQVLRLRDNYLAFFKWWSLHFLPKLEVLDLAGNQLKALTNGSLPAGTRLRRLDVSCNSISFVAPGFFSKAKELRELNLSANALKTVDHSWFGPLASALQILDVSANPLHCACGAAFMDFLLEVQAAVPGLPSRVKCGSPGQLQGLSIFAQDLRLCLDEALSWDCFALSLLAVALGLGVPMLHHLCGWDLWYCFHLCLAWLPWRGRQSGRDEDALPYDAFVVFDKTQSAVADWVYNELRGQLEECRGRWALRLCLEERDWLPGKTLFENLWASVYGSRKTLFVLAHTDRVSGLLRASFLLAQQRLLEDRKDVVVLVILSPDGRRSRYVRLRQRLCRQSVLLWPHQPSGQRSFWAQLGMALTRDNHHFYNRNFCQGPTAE
How it was run: as §1

[3] = molecular target: T3, human TLR7 (Homo sapiens, UniProt Q9NYK1); experiment: TLR7 inhibition reporter assay (HEK-Blue SEAP reporter, gardiquimod stimulation); details: HEK-Blue cells overexpressing human TLR7, SEAP reporter, gardiquimod 7.5 μM, 22 hour incubation
T3 construct: host or cells: HEK-Blue cells
T3 sequence (Q9NYK1 27-1049): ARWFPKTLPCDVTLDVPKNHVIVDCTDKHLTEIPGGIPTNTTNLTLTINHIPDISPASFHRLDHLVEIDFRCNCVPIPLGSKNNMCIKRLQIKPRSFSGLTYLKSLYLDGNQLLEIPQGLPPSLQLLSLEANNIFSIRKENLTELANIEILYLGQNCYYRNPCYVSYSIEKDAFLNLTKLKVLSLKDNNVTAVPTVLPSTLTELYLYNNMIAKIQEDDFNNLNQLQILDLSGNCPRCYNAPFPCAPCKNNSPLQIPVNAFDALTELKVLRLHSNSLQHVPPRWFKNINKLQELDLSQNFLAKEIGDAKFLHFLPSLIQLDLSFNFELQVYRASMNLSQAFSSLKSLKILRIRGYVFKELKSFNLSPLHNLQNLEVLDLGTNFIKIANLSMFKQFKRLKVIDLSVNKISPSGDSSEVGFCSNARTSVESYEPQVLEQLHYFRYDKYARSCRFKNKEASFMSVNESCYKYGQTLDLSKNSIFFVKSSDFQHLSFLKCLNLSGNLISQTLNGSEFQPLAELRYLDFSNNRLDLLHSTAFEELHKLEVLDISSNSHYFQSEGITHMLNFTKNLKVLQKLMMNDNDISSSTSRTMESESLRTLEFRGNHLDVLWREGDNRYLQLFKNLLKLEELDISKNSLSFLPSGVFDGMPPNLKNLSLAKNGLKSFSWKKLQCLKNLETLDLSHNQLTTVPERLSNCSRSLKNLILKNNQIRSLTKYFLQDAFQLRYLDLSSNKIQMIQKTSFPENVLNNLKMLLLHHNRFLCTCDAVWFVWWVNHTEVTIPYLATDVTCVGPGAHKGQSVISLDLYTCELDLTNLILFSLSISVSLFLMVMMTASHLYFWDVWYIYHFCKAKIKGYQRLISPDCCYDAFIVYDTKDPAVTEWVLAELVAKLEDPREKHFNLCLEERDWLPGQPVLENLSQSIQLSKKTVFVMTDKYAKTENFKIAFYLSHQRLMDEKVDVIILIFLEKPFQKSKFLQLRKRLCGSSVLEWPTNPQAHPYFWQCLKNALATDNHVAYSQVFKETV
How it was run: as §1

Row | Structure (SMILES) | IC50 [1] | IC50 [2] | IC50 [3]
1 | Cc1c(-c2[nH]c3ccc(C4CCNCC4)cc3c2C(C)C)cn(C)c(=O)c1C#N [Example 24, 5-(3-isopropyl-5-(piperidin-4-yl)-1H-indol-2-yl)-1,4-dimethyl-2-oxo-1,2-dihydropyridine-3-carbonitrile] | 10.7 nM | 3760 nM | 75.9 nM
2 | Cc1cc(-c2[nH]c3ccc(C4CCN(CC(=O)N5CC[C@@H](O)C5)CC4)cc3c2C(C)C)cn(C)c1=O [Example 120, (R)-5-(5-(1-(2-(3-hydroxypyrrolidin-1-yl)-2-oxoethyl)piperidin-4-yl)-3-isopropyl-1H-indol-2-yl)-1,3-dimethylpyridin-2(1H)-one] | 11.5 nM | 851 nM | 7.4 nM
3 | Cc1cc(-c2[nH]c3ccc(C4CCNCC4)cc3c2C(C)C)cn(CC(F)F)c1=O [Example 40, 1-(2,2-difluoroethyl)-5-(3-isopropyl-5-(piperidin-4-yl)-1H-indol-2-yl)-3-methylpyridin-2(1H)-one] | 16.9 nM | 4450 nM | 5.2 nM
4 | Cc1cc(-c2[nH]c3ccc(C4CCNCC4)cc3c2C(C)C)c(C)n(C)c1=O [Example 3, 5-(3-isopropyl-5-(piperidin-4-yl)-1H-indol-2-yl)-1,3,6-trimethylpyridin-2(1H)-one] | 3.4 nM | 979 nM | 8.4 nM
5 | Cc1cc(-c2[nH]c3ccc(C4CCN(C(=O)C(C)(C)N)CC4)cc3c2C(C)C)cn(C)c1=O [Example 296, 5-(5-(1-(2-amino-2-methylpropanoyl)piperidin-4-yl)-3-isopropyl-1H-indol-2-yl)-1,3-dimethylpyridin-2(1H)-one] | 3 nM | 4310 nM | 1.1 nM
6 | CNC(=O)CN1CCC(c2ccc3[nH]c(-c4cc(C)c(=O)n(C)n4)c(C(C)C)c3c2)CC1 [Example 118, 2-(4-(2-(1,5-dimethyl-6-oxo-1,6-dihydropyridazin-3-yl)-3-isopropyl-1H-indol-5-yl)piperidin-1-yl)-N-methylacetamide] | 14.5 nM | 9640 nM | 18.6 nM
7 | CCn1cc(-c2[nH]c3ccc(C4CCN(CC(=O)N(C)C)CC4)cc3c2C(C)C)cc(C)c1=O [Example 133, 2-(4-(2-(1-ethyl-5-methyl-6-oxo-1,6-dihydropyridin-3-yl)-3-isopropyl-1H-indol-5-yl)piperidin-1-yl)-N,N-dimethylacetamide] | 6.2 nM | 14900 nM | 24.1 nM
8 | COc1cc(-c2[nH]c3ccc(C4CCNCC4)cc3c2C(C)C)c(C)n(C)c1=O [Example 28, 5-(3-isopropyl-5-(piperidin-4-yl)-1H-indol-2-yl)-3-methoxy-1,6-dimethylpyridin-2(1H)-one] | 174 nM | 1210 nM | 207 nM
9 | CC(C)c1c(-c2ccc(=O)n(C)c2)[nH]c2ccc(C3CCN(C4COC4)CC3)cc12 [Example 179, 5-(3-isopropyl-5-(1-(oxetan-3-yl)piperidin-4-yl)-1H-indol-2-yl)-1-methylpyridin-2(1H)-one] | 28.8 nM | 3930 nM | 95.1 nM
10 | Cc1cc(-c2[nH]c3ccc(C4CCN(C5CCC(C(C)(C)O)CC5)CC4)cc3c2C(C)C)cn(C)c1=O (stereo not drawn) [Example 267, 5-(5-(1-(4-(2-hydroxypropan-2-yl)cyclohexyl)piperidin-4-yl)-3-isopropyl-1H-indol-2-yl)-1,3-dimethylpyridin-2(1H)-one] | 6.6 nM | 3540 nM | 2.2 nM
11 | Cc1cc(-c2[nH]c3ccc(C4CCN(Cc5cc(OC(F)F)ccc5F)CC4)cc3c2C(C)C)cn(C)c1=O [Example 78, 5-(5-(1-(5-(difluoromethoxy)-2-fluorobenzyl)piperidin-4-yl)-3-isopropyl-1H-indol-2-yl)-1,3-dimethylpyridin-2(1H)-one] | 64 nM | 34800 nM | 67.6 nM
12 | CC(C)c1c(-c2cc(C#N)c(=O)n(C)c2)[nH]c2ccc(C3CCNCC3)cc12 [Example 47, 5-(3-isopropyl-5-(piperidin-4-yl)-1H-indol-2-yl)-1-methyl-2-oxo-1,2-dihydropyridine-3-carbonitrile] | 41.1 nM | 1890 nM | 31.9 nM
